Entries after “also recorded” stand apart in the source; their conditions may differ.
What was measured:
Format in all cases: cell-based, human
phospho-tau = phospho-tau expression, Western blot / MICE assay; conditions: PNET2 cells induced to express AD7c-NTP; relative to PDGF-stimulated cultures
Excerpt: (§1) Standard Western blot assays wew used to measure cellular levels of p53, Bcl-2, p21/Waf1, phospho-tau, tau, c-fos, NTP, and activated (phosphorylated) forms of Erk mitogen activated protein (MAP) kinase, amino-terminal c-jun-activated kinase (pJNK), and p38/HOG1. Immunoprecipitation followed by Western blot analysis was used to measure p85 subunit associated with IRS1. For Western blot analysis of p53 Bcl-2, phospho-tau, tau, c-fos, and NTP, the cells were lysed in ice cold radioimmunoprecipitation assay (RIPA) buffer supplemented with protease and phosphatase inhibitors. […] Protein concentrations were measured using the BCA assay (Pierce, Rockford, Ill.). Samples containing 60 μg of protein were fractionated by sodium dodecyl sulfate polyacrylamide gel electrophoresis (SDS-PAGE), then transferred to PVDF membranes, and analyzed by Western immunoblotting. Immunoreactivity was detected with horseradish peroxidase conjugated secondary IgG and PicoWest enhanced chemiluminescence reagents (Pierce Chemical Company, Rockford, Ill.). CAT activity was measured using known methods.
(§2) The MICE assay is known in the art (e.g., as described by de la Monte et al., 1999, Biotechniques 26:107301076). […] Immunoreactivity was detected using horseradish peroxidase conjugated secondary antibody (Pierce, Rockford, Ill.) and the TMB soluble peroxidase substrate (Pierce, Rockford, Ill.). […]

phospho-JNK = assay: Growth factor stimulated phospho-JNK, Western blot; conditions: 5-30 min stimulation
Excerpt: (§3) Standard Western blot assays wew used to measure cellular levels of p53, Bcl-2, p21/Waf1, phospho-tau, tau, c-fos, NTP, and activated (phosphorylated) forms of Erk mitogen activated protein (MAP) kinase, amino-terminal c-jun-activated kinase (pJNK), and p38/HOG1. Immunoprecipitation followed by Western blot analysis was used to measure p85 subunit associated with IRS1. For Western blot analysis of p53 Bcl-2, phospho-tau, tau, c-fos, and NTP, the cells were lysed in ice cold radioimmunoprecipitation assay (RIPA) buffer supplemented with protease and phosphatase inhibitors. For the immunoprecipitation studies, Western blot analysis of phospho-Erk, pJNK, and p38, and the PI3 kinase assays, the cells were harvested in Triton lysis buffer supplemented with protease and phosphatase inhibitors. Protein concentrations were measured using the BCA assay (Pierce, Rockford, Ill.). Samples containing 60 μg of protein were fractionated by sodium dodecyl sulfate polyacrylamide gel electrophoresis (SDS-PAGE), then transferred to PVDF membranes, and analyzed by Western immunoblotting. Immunoreactivity was detected with horseradish peroxidase conjugated secondary IgG and PicoWest enhanced chemiluminescence reagents (Pierce Chemical Company, Rockford, Ill.). CAT activity was measured using known methods.
(§4) The potential mechanisms by which the differential effects of insulin, IGF1 and PDGF might occur were explored by examining pathways, which mediate PNET2 neuronal apoptosis and neuritic sprouting. […] Western blot analysis was performed with cell lysates obtained from cultures stimulated with insulin, IGF1, or PDGF for 0-30 minutes or 24 hours with equivalent protein loading (60 μg/sample). The membranes were probed using antibodies to Erk, phospho-Erk, Jun, and phospho-JNK. […] In contrast, after 24 hours of AD7c-NTP gene induction and growth factor stimulation, high levels of phospho-Erk MAPK were detected in the IGF-1 and PDGF-stimulated cultures, but not in the serum-starved or insulin-stimulated cultures. […] In contrast, the levels of c-fos transcription factor were equally expressed after 24 hours IPTG induction of AD7c-NTP expression and either serum starvation or stimulation with insulin, IGF1 or PDGF.

[1] = test system: PY-PI3 kinase (total PI3 kinase); assay: PI3 kinase activity in anti-phospho-tyrosine (PY) immunoprecipitates; conditions: 24 or 48 hours of stimulation
Protocol: The cells were harvested in Triton lysis buffer supplemented with protease and phosphatase inhibitors. Total PI3K was immunoprecipitated from 500 μg protein in cell lysates using rabbit polyclonal antibodies to the p85 subunit of PI3K and Protein A sepharose. The immunoprecipitants were incubated for 5 minutes at room temperature with 10 μg of sonicated phosphatidylinositol in HEPES buffer (200 mM HEPES, 4 mM EGTA, 4 mM sodium phosphate, pH 7.0). Reactions were initiated by the addition of 5 μCi [α^32p] ATP, 15 mM MgCl2, 150 mM ATP, 1.5 mM Tris-HCl, pH 7.4, and 15 mM NaCl. After 10 minutes incubation at 30° C., the reactions were stopped by the addition of HCl to a final concentration of 1.2 N, followed by chloroform/methanol extraction. Phosphorylated lipids were analyzed by thin layer chromatography using gel plates pre-coated with 1% oxalate (Merck, White House Station, N.J.). PI3K activity was measured with a phosphorimager.
PI3 kinase is an important mediator of neuronal survival. The pro-survival effects of PI3K are mediated through activation of Akt (protein kinase B) and phosphorylation of Bad to render it inactivated. Inhibition of PI3 kinase activity is associated with PNET2 cell apoptosis. Therefore, experiments were carried out to determine if growth factor stimulated PI3 kinase activity was inhibited in insulin or IGF-1-stimulated cultures. Such inhibition has been observed following chronic ethanol exposure. Since insulin and IGF-1 can activate PI3 kinase through the insulin-receptor substrate-1 (IRS-1) or through IRS-1-independent pathways, both IRS1-associated PI3 kinase and total PI3 kinase activities were measured. These studies were conducted using insulin or PDGF stimulated cultures in which AD7c-NTP gene expression was induced by 3 mM IPTG stimulation. […] Levels of PI3 kinase activity were measured in anti-phospho-tyrosine (PY) immunoprecipitates. […] Similarly, PI3 kinase activity was readily detected in the PY immunoprecipitates prepared with cells stimulated with insulin or PDGF.

phospho-Erk MAPK = assay: Growth factor stimulated phospho-Erk MAPK, Western blot
Excerpt: as §3, §4

p21/Waf1 = p21/Waf1 expression, Western blot / MICE assay; conditions: PNET2 cells induced to express AD7c-NTP, growth factor stimulated
Excerpt: as §1, §2

Substance: insulin: Human insulin purchased from Novagen
- phospho-tau level (phospho-tau): increased levels
- phospho-JNK level, short-term stimulation (phospho-JNK): sharply increased and sustained elevations
- PY-PI3 kinase activity, 24 or 48 hours [1]: similar
- phospho-Erk MAPK level, short-term stimulation (phospho-Erk MAPK; 0-30 minutes stimulation): increased levels
- phospho-Erk MAPK level, 24 hours (phospho-Erk MAPK; 24 hours of AD7c-NTP induction and growth factor stimulation): reduced levels
- p21/Waf1 level (p21/Waf1): increased levels of p21/Waf1; also recorded: significantly increased levels
